Source: ChEMBL document CHEMBL1142789, “Carbonic anhydrase inhibitors: design of thioureido sulfonamides with potent isozyme II and XII inhibitory properties and intraocular pressure lowering activity in a rabbit model of glaucoma” (Bioorg Med Chem Lett, 2005)

Columns and labels:
Assay type in all cases: functional
Oryctolagus cuniculus [1] = experiment: Tested for the fall of intraocular pressure of glaucomatous rabbits, after treatment with one drop (50 uL) 2% solution at a pH 7.0, directly into the eye after 0 minutes of administration
Oryctolagus cuniculus [2] = experiment: Tested for the fall of intraocular pressure of glaucomatous rabbits, after treatment with one drop (50 uL) 2% solution at a pH 7.0, directly into the eye after 60 minutes of administration
Oryctolagus cuniculus [3] = experiment: Tested for the fall of intraocular pressure of glaucomatous rabbits, after treatment with one drop (50 uL) 2% solution at a pH 7.0, directly into the eye after 30 minutes of administration
Oryctolagus cuniculus [4] = experiment: Tested for the fall of intraocular pressure of glaucomatous rabbits, after treatment with one drop (50 uL) 2% solution at a pH 7.0, directly into the eye after 90 minutes of administration
Oryctolagus cuniculus [5] = experiment: Tested for the fall of intraocular pressure of glaucomatous rabbits, after treatment with one drop (50 uL) 2% solution at a pH 6.5, directly into the eye after 0 minutes of administration
Oryctolagus cuniculus [6] = experiment: Tested for the fall of intraocular pressure of glaucomatous rabbits, after treatment with one drop (50 uL) 2% solution at a pH 6.5, directly into the eye after 60 minutes of administration
Oryctolagus cuniculus [7] = experiment: Tested for the fall of intraocular pressure of glaucomatous rabbits, after treatment with one drop (50 uL) 2% solution at a pH 6.5, directly into the eye after 90 minutes of administration
Oryctolagus cuniculus [8] = experiment: Tested for the fall of intraocular pressure of glaucomatous rabbits, after treatment with one drop (50 uL) 2% solution at a pH 6.5, directly into the eye after 30 minutes of administration

| Structure (SMILES) | Activity (Oryctolagus cuniculus [1]) [mmHg] | Activity (Oryctolagus cuniculus [2]) [mmHg] | Activity (Oryctolagus cuniculus [3]) [mmHg] | Activity (Oryctolagus cuniculus [4]) [mmHg] | Activity (Oryctolagus cuniculus [5]) [mmHg] | Activity (Oryctolagus cuniculus [6]) [mmHg] | Activity (Oryctolagus cuniculus [7]) [mmHg] | Activity (Oryctolagus cuniculus [8]) [mmHg] |
| --- | --- | --- | --- | --- | --- | --- | --- | --- |
| NCC(=O)NC(=S)NCCc1ccc(S(N)(=O)=O)cc1.[Cl-].[Na+] | 0 | 5.9 | 3 | 5.5 |  |  |  |  |
| NC(=O)CC(N)C(=O)NC(=S)NCCc1ccc(S(N)(=O)=O)cc1.[Cl-].[Na+] (stereo unspecified) | 0 | 13 | 10 | 15.5 |  |  |  |  |
| NC(Cc1ccccc1)C(=O)NC(=S)NCCc1ccc(S(N)(=O)=O)cc1.[Cl-].[Na+] (stereo unspecified) | 0 | 6.1 | 4 | 6.4 |  |  |  |  |
| Cl.NS(=O)(=O)c1ccc(CC/N=C(\S)NNCCN2CCOCC2)cc1 |  |  |  |  | 0 | 6.9 | 5.9 | 6.5 |
